# Results reported in US20260283941A1, “PHARMACEUTICAL COMPOSITION CONTAINING PYRROLE GASTRIC ACID SECRETION INHIBITOR AND PREPARATION METHOD THEREFOR” (JIANGSU CAREPHAR PHARMACEUTICAL CO., LTD., priority 2022, published 2026).
# Assay: Stability investigation: properties (appearance) of the injection solutions
# Format: physicochemical
# Conditions: pH of the injectable composition 2.0
# Description: The compound represented by formula II and the stabilizer were weighed and dissolved in 90% of a prescribed amount of water for injection. The pH of the solution was adjusted with hydrochloric acid, and then water for injection was added to the full amount. The solution was filled up to 2 mL, and was flushed with nitrogen before and after filling and sealing. The solution was sterilized at 121° C. for 15 minutes to obtain the composition. […] The changes of impurities were detected by high-performance liquid chromatography (HPLC). The analytical method used to detect the impurity content was as follows:
# The compound represented by formula II and disodium edetate or calcium disodium edetate were weighed and dissolved in 90% of a prescribed amount of water for injection. The pH of the solution was adjusted with hydrochloric acid, and then water for injection was added to the full amount. The solution was filled in a 2 mL ampoule, and was flushed with nitrogen before and after filling and sealing. The sample was sterilized at 121° C. for 15 minutes to obtain the composition. The compositions were placed under conditions including a high temperature of 60° C. and illumination at 5000 Lx for stability investigation, to determine the properties of the injection solutions and the changes of impurities.
smiles,measurement,value
CNCc1cc(-c2ccccc2F)n(S(=O)(=O)c2cccc(OCCCOC)c2)c1.Cl [compound represented by formula II],Solubility (in words),reduced solubility
